Reference: ChEMBL document CHEMBL3507680, “University of Dundee, Gates Library screen for HepG2 cell viability”

Experiment: Human HepG2 cell viability assay in 384 well format
Type: toxicity, cell-based
Set-up: dose 125 nL, time 70.5 hour; concentration not given beside the values
Conditions: HepG2 cells, read-out: Inhibition

Row | SMILES | cytotoxicity at 70.5 h [%]
1 | O=C1NC(c2ccccc2)=N[C@@]12CC[C@@H]1CN(CC3CCOCC3)C[C@@H]12 | 23.3
2 | COc1ccc(CCN2CCCC(CN(C)Cc3ccc(C)o3)C2)cc1 (stereo not given) | -5.02
3 | Cc1cc(C(=O)N2CC[C@@]3(O)CCN(C(=O)N4CCCC4)C[C@H]3C2)no1 | -4
4 | CC[C@H]1CN(C(=O)CCn2c(C)cccc2=O)CC[C@@]1(C)O | -4.82
5 | NC(=O)CSCC(=O)NC1(c2cccc(Cl)c2)CC1 | 2.26
6 | CN(C)CCO[C@H]1CN(Cc2ccoc2)[C@@H]2COC[C@H]12 | 6.76
7 | CC(=O)N(Cc1ncc(C(C)C)o1)C1CCN(Cc2ncc[nH]2)C1 (stereo not given) | 0.135
8 | Cn1cc2c(n1)C(COCC1CC1)CN(Cc1ccccn1)C2 (stereo not given) | 15.6
9 | Cc1ccc(CN2CCN(Cc3ccc(N(C)C)nc3)CC2=O)cc1C | -1.36
10 | Cc1ccc(C(=O)N2Cc3ccccc3OC3(CCOCC3)C2)cn1 | 30.6
11 | Cc1nc(CN(C)C2CCN(CC(=O)NC3CCOCC3)C2)no1 (stereo not given) | 4.94
12 | Cc1ccc(NS(=O)(=O)c2cc3c(c(C(=O)O)c2)OCCO3)cc1C | -5.96
13 | COc1ccc(N2Cc3nc(=O)n(Cc4cccc(F)c4)n3C2=O)cc1 | -13
14 | COc1ccc(OCc2sc(C3(O)CCCNCC3)nc2C)cc1 (stereo not given) | -10.3
15 | Cn1ccnc1CN1CCC2(CC(=O)N(c3ccc4c(c3)OCO4)C2)C1 (stereo not given) | -17.1
16 | COc1ccc(C2CCCN2C(=O)c2csc(NC(C)=O)n2)cc1 (stereo not given) | -20.6
17 | CCC(C(=O)NCc1ccn(-c2ccc(F)cc2)n1)N1CCCC1=O (stereo not given) | 5.43
18 | CC(=O)N(Cc1ccoc1)C1CCCCC1 | -5.21
19 | Cc1noc(C(C)C)c1C(=O)NCCCN1CCC(C)CC1 | -13
20 | CCOCc1ncn2c1CN(C(=O)Nc1cccc(C)c1)CC2 | -6.82
21 | CN(Cc1cccc(F)c1)C(=O)c1ccncc1Cl | -18.9
22 | Cc1cc(NC(=O)N(C)C2CCN(c3ccccc3F)C2=O)n(C)n1 (stereo not given) | -0.35

Row | SMILES | cytotoxicity at 70.5 h [%]
23 | CSc1ccccc1C(=O)N1CCN(C)C2(CCC(=O)N(C)CC2)C1 (stereo not given) | -14.6
24 | Cc1cnc(C(=O)N2CCC3(CC2)CC(c2ccncc2)C(=O)N3)cn1 (stereo not given) | -5.53
25 | O=C(CCC1CCCCC1)NS(=O)(=O)CC1CC1 | 14.7
26 | CCn1cc(NC(=O)c2cc(C)nc(N3CCOCC3)n2)cn1 | -10.6
27 | COc1ccc(C(=O)CCC(=O)NCc2ncc(C)s2)cc1F | -9.89
28 | O=C1C(NS(=O)(=O)c2cccc(F)c2)CCN1Cc1ccccc1 (stereo not given) | -12
29 | O=C(CN1CCOC1=O)N(Cc1ccccc1)Cc1nccs1 | -14.3
30 | CC(NC(=O)c1cnccn1)c1nnc2ccccn12 (stereo not given) | -4.81
31 | NCCCNS(=O)(=O)Cc1ccc(Br)cc1 | -9.57
32 | CN(C)CCO[C@H]1CN(C(=O)c2ccc[nH]2)[C@@H]2COC[C@H]12 | -11.1
33 | COc1cc(C2SCC(=O)Nc3[nH]ncc32)c(OC)c2c1OCO2 (stereo not given) | -12.7
34 | CN1CCC(Cc2cncc(-c3ccccc3C(=O)O)n2)C1 (stereo not given) | -6.47
35 | Cc1csc(CN(C)c2cc(C)nc3c(C)c(C)nn23)n1 | -7.34
36 | CCc1ccc2nc(C)cc(C(=O)N[C@@H]3C[C@@H](CO)N(C)C3)c2c1 | -3.88
37 | COCC(=O)N[C@H](C)c1onc(-c2ccc(Cl)cc2)c1C(=O)O | -1.96
38 | CCc1cc(C(F)(F)F)n2nc(C3CCCN3C(=O)COC)cc2n1 (stereo not given) | -4.23
39 | CCN1CC2(CC1=O)CN(C(C)=O)CCN(S(C)(=O)=O)C2 (stereo not given) | -13.4
40 | CCNC(=O)[C@@H]1CCCN1[C@@H](C(=O)NC)c1ccccc1OC | -8.29
41 | CN(C)CCCNC(=O)c1cc(-c2ccc3c(c2)CCO3)n[nH]1 | 10.7
42 | COc1ncccc1CNC(=O)N1CCC(CNC(C)=O)CC1 | -8.01
43 | Cn1ccnc1C(=O)N1C[C@@H]2CCN(c3cnccn3)C[C@@H]2C1 | -7.28
44 | CS(=O)(=O)NC[C@]12COC[C@H]1CN(C(=O)c1cnccn1)C2 | 19.5

Row | SMILES | cytotoxicity at 70.5 h [%]
45 | COc1ccc(CNC(C)Cn2cccn2)c(OC)c1OC (stereo not given) | -7.21
46 | O=C(NCc1cccnc1)[C@H]1CC[C@@H]2[C@@H](CCN2c2ncccn2)O1 | -6.01
47 | CN1CC[C@]2(CN(Cc3nccs3)C[C@H]2c2ccccc2)C1=O | 4.14
48 | O=C(c1ccco1)N1CCOCC2(C1)CN(c1ccoc1)C(=O)CO2 (stereo not given) | -10
49 | CC(=O)C1(c2ccccc2)CCN(C(=O)c2ccn3nnnc3c2)CC1 | -13.3
50 | NCC1Cc2cccc(-c3nccc(N4CCC(O)CC4)n3)c2O1 (stereo not given) | 7.11
51 | Cc1nc2[nH]cnc(NCCN3CCCC3)c-2n1 | -9.67
52 | c1cnc2c(C3CCN(Cc4ccsc4)CC3)n[nH]c2n1 | 42.8
53 | Cc1ccsc1CNC(=O)Cc1c(C)nc2c(c1C)c(=O)[nH]n2C | -12.2
54 | O=C(c1ccco1)N1CCOC2(COCCN(c3ncccn3)C2)C1 (stereo not given) | -14.8
55 | CC(C)S(=O)(=O)N1CCN(C(=O)c2cnn(C)c2Cl)CC1 | -12.2
56 | O=C(c1cccnc1)N1C[C@@H]2CC[C@H](C1)N(Cc1cccc(Cl)c1F)C2 | -1.34
57 | Cc1cc2[nH]c(=O)oc2cc1S(=O)(=O)N1C[C@@H](N(C)C)[C@H](C(C)C)C1 | -10.7
58 | CC(O)CN1CCN(C(=O)c2cccn2Cc2ccncc2)CC1 (stereo not given) | -16.4
59 | O=c1oc(-c2ccccc2)nn1CN1CCC(N2CCCCC2)CC1 | 24.3
60 | O=C(c1ncoc1C1CCCO1)N1CC2(CCCC2)c2ccccc21 (stereo not given) | -6.29
61 | CN1CCN(C(=O)c2cccc(S(=O)(=O)NCC3(C)COC3)c2)CC1 | -9.16
62 | O=C1c2c(O)cc(O)cc2O[C@@H](c2ccc(O)cc2)[C@@H]1O | -7.81
63 | Cc1ncc(S(C)(=O)=O)c(N2CCCN(Cc3ccccn3)CC2)n1 | -5.13
64 | O=C(CN1CCOC(Cn2cccn2)C1)NC1CCN(C2CC2)CC1 (stereo not given) | -6.52
65 | Cc1cc(NC(=O)CN(C)C2CCCN(c3cccnn3)C2)n(C)n1 (stereo not given) | -4.81
66 | CSCCc1c(-c2ccccc2)ncn1[C@H]1C[C@@H](C(=O)O)N(C)C1 | -13.3

Row | SMILES | cytotoxicity at 70.5 h [%]
67 | O=C(CSc1ccccc1)N1C[C@H]2CC[C@@H]1CN(Cc1ccncc1)C2 | -4.9
68 | O=C(Cc1ccc(F)cc1Cl)N1CC[C@H](CO)[C@@H](O)C1 | 9.17
69 | Cc1cc(C(=O)N2CCCC2)ccc1NCC(=O)N1CCCCC1C (stereo not given) | 7.01
70 | COc1cc(N2C[C@H]3CCC[C@@H](CN4CCCC4)[C@H]3C2)ncn1 | -8.91
71 | Fc1cccc(NCc2ncc[nH]2)c1 | -8.15
72 | CCC(=O)N1CCC(c2nc(N3CCOCC3)ncc2S(C)(=O)=O)CC1 | -9.6
73 | CCn1c(SCC(=O)N2CCCC2)nc2cc(C)[nH]c2c1=O | 36.5
74 | N#Cc1ccccc1CN1CCCCC1Cn1cncn1 (stereo not given) | -20
75 | COCCC(=O)N1CCCC(CCC(=O)Nc2ccc(Cl)cc2)C1 (stereo not given) | -6.03
76 | CN1CC[C@H](N(Cc2ccccc2)C2COC2)C[C@H](O)C1 | -6.77
77 | Cn1cc(CN2CC[C@H]3O[C@H](C(=O)Nc4cnccn4)CC[C@H]32)cn1 | 29.6
78 | CC(C)n1ccnc1CN1CCCN(C(=O)c2nccnc2N)CC1 | -16.3
79 | COCCS(=O)(=O)N(Cc1ccsc1)c1ccccc1 | 2.67
80 | O=C(CCN1CCCC1c1cccs1)N1CCc2sccc2C1 (stereo not given) | -13.7
81 | CCOC(=O)N1CCCn2nc(C(=O)NCCN(C)C)cc2C1 | -6.9
82 | Cc1noc(C)c1CNC(=O)c1cn(CCC2CCCCN2)nn1 (stereo not given) | -0.767
83 | Cn1cc(CN2CCS(=O)(=O)C(C)(C)C2)cn1 | -9.13
84 | Cc1cc(C)nc(N2CCC(C(=O)Nc3ccc(C(C)C)cc3)CC2)n1 | -2.09
85 | CNC(=O)CS(=O)(=O)Cc1coc(-c2ccc(F)cc2)n1 | -9.1
86 | CN1CCCc2cc(CNC(=O)c3ccncc3)ccc21 | 33.4
87 | O=C1CC(c2ccncc2)C2(CCN(C(=O)c3cccc(F)c3)CC2)N1 (stereo not given) | -9.17
88 | CN(c1ccncn1)C1CC2(CCN(C(=O)c3cccn3C)C2)C1 (stereo not given) | -0.487

Row | SMILES | cytotoxicity at 70.5 h [%]
89 | Fc1ccc(CN2CCC(F)(F)C3(CCN(c4cnccn4)C3)C2)cc1 (stereo not given) | -9.88
90 | Cc1ncsc1CN1C[C@H](OCc2ccncc2)[C@H]2OCCC[C@H]21 | -8.48
91 | CC(C)CCn1ccc(NC(=O)N2CCCC2C(C)(C)O)n1 (stereo not given) | -6.63
92 | O=C(NCc1ccco1)[C@@H]1CCO[C@@H]2CCN(c3ncccn3)C[C@H]21 | -3.72
93 | O=C(c1ncc(F)cc1F)N1CCC(c2ncc[nH]2)CC1 | -14
94 | CCC(NC(=O)c1nn(C)cc1C(=O)O)c1ccccc1 (stereo not given) | -15.2
95 | CC(C)c1noc(C(C)N2CCN(CCO)CC2)n1 (stereo not given) | -1.66
96 | CCN1CC(C(=O)N2CCC(Oc3ccccc3C)CC2)CC1=O (stereo not given) | -7.02
97 | Cn1c(CN2CCOC(CCc3ccncn3)C2)nc2ccccc21 (stereo not given) | -3.77
98 | Cc1ccc(N2CCCN(C(=O)C3CCCO3)CC2)nn1 (stereo not given) | 4.49
99 | OCCNc1nc(Nc2ccccc2)c2nccnc2n1 | -0.149
100 | O=C(Cc1cccs1)N1CCn2cc(Cn3cccn3)nc2C1 | -13.4
101 | CC(NC(=O)COc1nc(C(C)(C)C)no1)c1ccco1 (stereo not given) | -6.24
102 | COc1cccc(S(=O)(=O)NC2CNC(=O)C2)c1 (stereo not given) | 1.68
103 | Cc1c(COC(C)C)cccc1NC(=O)N1CC[C@H](O)C1 | -6.27
104 | O=C(c1ccccn1)N1CCn2cnc(COCC3CC3)c2C1 | -1.29
105 | Cc1nnc(NC(=O)NCc2ccc(C)n2C)s1 | 13.4
106 | Cc1cc(C)c(C(=O)N2CCC3(CCCN(CC(C)(C)C)C3)C2)[nH]1 (stereo not given) | 15.2
107 | Cc1csc2c(C3CCN(CCOc4ccccc4F)CC3)nc(C)n12 | 18.2
108 | CCCN(Cc1nc(-c2ccc(F)c(OC)c2)oc1C)CC1CCCO1 (stereo not given) | -5.99
109 | COc1cc(OC)cc(C2CCN(CC(=O)NCC(F)(F)F)C2)c1 (stereo not given) | -3.94
110 | CC(NC(=O)NCc1ccccn1)c1cccs1 (stereo not given) | -13.9
